Among the data in DBAASP are MIC values, retold here.

Experiment in all cases: ≥ marks a high value that may be exact or a test limit, other limits are often not marked, values filed in µg/mL are converted to µM
Experiment [1] has as its system Staphylococcus aureus ATCC 25923.
For experiment [2], the system named is Escherichia coli ATCC 25922.
Experiment [3] concerns Acinetobacter baumannii ATCC 19606.
Experiment [4] has as its system Pseudomonas aeruginosa ATCC 27853.
Experiment [5] has as its system Enterococcus faecalis ATCC 29212.
In experiment [6] the test system is Staphylococcus aureus NCTC 8325.
The subject of experiment [7] is Candida albicans ATCC 90028.
Experiment [8] relates to Salmonella enterica subsp. enterica serovar Typhimurium C77-31.
The test system of experiment [9] is Staphylococcus aureus ATCC 29213.
The test system of a further experiment is Escherichia coli UB1005.
In experiment [10] the test system is Staphylococcus epidermidis ATCC 12228.
Experiment [11] has as its system Candida albicans ATCC 10231.

Molecules are shown by their SMILES. Converted amounts (≈) assume the structure as drawn. Bounds are passed on as bounds.

Turning to `CSCC[C@H](NC(=O)[C@H](CCCCN)NC(=O)[C@H](CC(C)C)NC(=O)[C@H](CC(C)C)NC(=O)[C@H](Cc1cnc[nH]1)NC(=O)[C@@H]1CCCN1C(=O)[C@H](CC(C)C)NC(=O)[C@H](CC(C)C)NC(=O)[C@H](Cc1c[nH]c2ccccc12)NC(=O)[C@H](CC(C)C)NC(=O)[C@H](CCCCN)NC(=O)[C@H](CCC(=O)O)NC(=O)CNC(=O)[C@H](C)NC(=O)[C@@H](NC(=O)[C@H](C)N)C(C)C)C(=O)N[C@@H](CC(C)C)C(=O)N[C@@H](CC(C)C)C(=O)N[C@H](C(=O)N1CCC[C@H]1C(=O)N[C@H](C(=O)N1CCC[C@H]1C(N)=O)[C@@H](C)O)[C@@H](C)O` [AVAGEKLWLLPHLLKMLLTPTP], the minimum inhibitory concentration (MIC) in [1] was 164 µM (≈ 400 µg/mL); in experiment [2], more than 164 µM; in [3], more than 164 µM; in [4], more than 164 µM; in [5] it was 164 µM (≈ 400 µg/mL).

On to `CC[C@H](C)[C@H](NC(=O)[C@H](CC(C)C)NC(=O)[C@H](CO)NC(=O)[C@@H](NC(=O)[C@H](CC(C)C)NC(=O)[C@H](CO)NC(=O)[C@@H]1CCCN1C(=O)[C@H](CC(C)C)NC(=O)CNC(=O)[C@H](CCCCN)NC(=O)[C@H](C)NC(=O)[C@H](CC(C)C)NC(=O)[C@H](C)NC(=O)CNC(=O)[C@@H](NC(=O)[C@@H](NC(=O)[C@H](CO)NC(=O)CNC(=O)[C@H](Cc1ccccc1)NC(=O)[C@@H](N)Cc1ccccc1)[C@@H](C)CC)[C@@H](C)CC)[C@@H](C)CC)C(=O)N[C@@H](CCCCN)C(=O)N[C@@H](CCCCN)C(N)=O` [FFGSIIGALAKGLPSLISLIKK], for which the minimal inhibitory concentration (MIC) in [6] came to 12.5 µM (≈ 28.4 µg/mL); in experiment [2] it was 6 µM (≈ 13.6 µg/mL).

For the compound `CC[C@H](C)[C@H](NC(=O)[C@H](CCSC)NC(=O)[C@H](CO)NC(=O)CNC(=O)[C@H](Cc1ccccc1)NC(=O)[C@@H](N)Cc1ccccc1)C(=O)NCC(=O)N[C@@H](C)C(=O)N[C@@H](CC(C)C)C(=O)N[C@@H](C)C(=O)N[C@@H](CCCCN)C(=O)NCC(=O)N[C@@H](CC(C)C)C(=O)N1CCC[C@H]1C(=O)N[C@@H](CO)C(=O)N[C@@H](CC(C)C)C(=O)N[C@H](C(=O)N[C@@H](CO)C(=O)N[C@@H](CC(C)C)C(=O)N[C@H](C(=O)N[C@@H](CCCCN)C(=O)N[C@@H](CCCCN)C(N)=O)[C@@H](C)CC)[C@@H](C)CC` [FFGSMIGALAKGLPSLISLIKK], the MIC in [6] and in experiment [2] was 12.5 µM (≈ 28.6 µg/mL) throughout.

For `CC(C)C[C@H](NC(=O)[C@H](CC(C)C)NC(=O)[C@H](CCCCN)NC(=O)[C@H](CCCCN)NC(=O)[C@H](CC(C)C)NC(=O)[C@H](CO)NC(=O)[C@H](CCCCN)NC(=O)[C@H](CC(C)C)NC(=O)[C@@H](N)Cc1ccccc1)C(N)=O` [FLKSLKKLL], the MIC in [1] was 117 µM (≈ 128 µg/mL); in experiment [2] it was 58.7 µM (≈ 63.9 µg/mL); in experiment [3], more than 117 µM; in experiment [4], 7.34 µM (≈ 7.99 µg/mL).

With `CC[C@H](C)[C@@H]1NC(=O)[C@H](C)NC(=O)[C@@H](NC(=O)[C@H](Cc2ccccc2)NC(=O)[C@@H](NC(=O)[C@H](CCCCN)NC(=O)[C@@H]2CCCN2C(=O)[C@H](CC(C)C)NC(=O)[C@H](Cc2ccccc2)NC(=O)[C@H](CCCCN)NC(=O)[C@H](C)NC(=O)[C@H](C)NC(=O)[C@H](CCSC)NC(=O)CNC(=O)[C@H](C)NC(=O)[C@@H](NC(=O)[C@H](Cc2ccccc2)NC(=O)[C@@H]2CCCN2C(=O)[C@H](CC(C)C)NC(=O)[C@@H](N)Cc2ccccc2)[C@@H](C)CC)[C@@H](C)CC)CSSC[C@@H](C(=O)O)NC(=O)[C@H](CCCCN)NC(=O)[C@H](CCCCN)NC(=O)[C@H](CO)NC1=O` [FLPFIAGMAAKFLPKIFCAISKKC], the MIC in experiment [6] was determined as 2 µM (≈ 5.29 µg/mL).

Take `CC[C@H](C)[C@@H]1NC(=O)[C@H](C)NC(=O)[C@@H](NC(=O)[C@H](Cc2ccccc2)NC(=O)[C@@H](NC(=O)[C@H](CCCCN)NC(=O)[C@H](CO)NC(=O)[C@H](Cc2ccccc2)NC(=O)[C@@H](NC(=O)[C@H](CCCCN)NC(=O)[C@H](C)NC(=O)[C@H](C)NC(=O)[C@@H](NC(=O)[C@H](CO)NC(=O)[C@H](C)NC(=O)[C@@H](NC(=O)[C@@H](NC(=O)[C@@H]2CCCN2C(=O)[C@H](CC(C)C)NC(=O)[C@@H](N)Cc2ccccc2)[C@@H](C)CC)[C@@H](C)CC)C(C)C)C(C)C)[C@@H](C)CC)CSSC[C@@H](C(=O)O)NC(=O)[C@H](CCCCN)NC(=O)[C@H](CCCCN)NC(=O)[C@H](CO)NC1=O` [FLPIIASVAAKVFSKIFCAISKKC]: the MIC in [6] was 7 µM (≈ 18.1 µg/mL); in experiment [2] it was 5 µM (≈ 12.9 µg/mL); in [7], 7 µM (≈ 18.1 µg/mL).

Turning to `CC[C@H](C)[C@H](NC(=O)CN)C(=O)N[C@@H](Cc1ccccc1)C(=O)N[C@@H](CC(N)=O)C(=O)N[C@H](C(=O)N[C@@H](Cc1ccccc1)C(=O)N[C@@H](CCCCN)C(=O)NCC(=O)N[C@@H](C)C(=O)N[C@@H](CC(C)C)C(=O)N[C@@H](CCCCN)C(=O)N[C@H](C(=O)N[C@@H](C)C(=O)NCC(=O)N[C@@H](CCCCN)C(=O)N[C@@H](Cc1cnc[nH]1)C(=O)N[C@H](C(=O)N[C@@H](C)C(=O)NCC(=O)N[C@@H](CO)C(=O)N[C@@H](CC(C)C)C(=O)N[C@@H](CC(C)C)C(=O)N[C@@H](CC(N)=O)C(=O)N[C@@H](CCC(N)=O)C(=O)N[C@@H](CC(C)C)C(=O)N[C@@H](CCCCN)C(=O)N[C@H]1CSSC[C@@H](C(=O)O)NC(=O)[C@H](CCC(=O)O)NC(=O)CNC(=O)[C@H](CO)NC(=O)[C@H](C(C)C)NC(=O)[C@H](CCCCN)NC1=O)C(C)C)[C@@H](C)O)C(C)C` [GIFNVFKGALKTAGKHVAGSLLNQLKCKVSGEC], the MIC in experiment [6] was 9 µM (≈ 30.8 µg/mL); in experiment [2], 4 µM (≈ 13.7 µg/mL); in [7] it was not below 40 µM.

As to `CC[C@H](C)[C@H](NC(=O)[C@H](CCCCN)NC(=O)CNC(=O)[C@H](Cc1ccccc1)NC(=O)[C@H](CC(C)C)NC(=O)CN)C(=O)N[C@@H](CC(C)C)C(=O)NCC(=O)N[C@H](C(=O)NCC(=O)N[C@@H](CCCCN)C(=O)N[C@@H](CCCCN)C(=O)N[C@H](C(=O)N[C@@H](CC(C)C)C(=O)N[C@H]1CSSC[C@@H](C(=O)O)NC(=O)[C@H](CCSC)NC(=O)CNC(=O)[C@H](CO)NC(=O)[C@H](CC(C)C)NC(=O)CNC1=O)C(C)C)C(C)C` [GLFGKILGVGKKVLCGLSGMC], the MIC in experiment [6] was 12.5 µM (≈ 26 µg/mL); in experiment [2] it was 3 µM (≈ 6.24 µg/mL); in experiment [7], not below 50 µM.

Turning to `CC[C@H](C)[C@H](NC(=O)[C@H](CCCCN)NC(=O)[C@H](CC(=O)O)NC(=O)[C@H](CC(C)C)NC(=O)[C@H](C)NC(=O)[C@H](CO)NC(=O)[C@H](C)NC(=O)[C@H](CC(C)C)NC(=O)[C@H](CC(C)C)NC(=O)[C@H](CC(N)=O)NC(=O)[C@H](CCCCN)NC(=O)[C@H](C)NC(=O)[C@H](C)NC(=O)CNC(=O)[C@H](CCCCN)NC(=O)[C@H](Cc1ccccc1)NC(=O)[C@@H](NC(=O)[C@H](CC(=O)O)NC(=O)[C@H](CCSC)NC(=O)[C@H](CC(C)C)NC(=O)CN)C(C)C)C(=O)N[C@@H](CCCN=C(N)N)C(=O)N[C@H]1CSSC[C@@H](C(=O)O)NC(=O)[C@H](CCCCN)NC(=O)[C@H]([C@@H](C)O)NC(=O)[C@H](C(C)C)NC(=O)[C@H](CCCCN)NC1=O` [GLMDVFKGAAKNLLASALDKIRCKVTKC], the MIC in experiment [6] was not below 100 µM; in experiment [2], 13 µM (≈ 38.9 µg/mL); in [7], not below 100 µM.

Take `CC[C@H](C)[C@H](NC(=O)[C@H](C)NC(=O)[C@H](CCC(=O)O)NC(=O)[C@H](Cc1cnc[nH]1)NC(=O)[C@H](Cc1ccccc1)NC(=O)CNC(=O)[C@H](CCC(N)=O)NC(=O)[C@H](Cc1ccccc1)NC(=O)[C@@H](NC(=O)[C@H](CCCCN)NC(=O)[C@H](CCCCN)NC(=O)[C@H](CC(C)C)NC(=O)[C@H](C)NC(=O)[C@H](CC(N)=O)NC(=O)[C@H](CC(C)C)NC(=O)CN)C(C)C)C(=O)N[C@@H](CCCCN)C(=O)N[C@@H](CC(C)C)C(=O)N[C@H](C(=O)N[C@@H](CC(N)=O)C(=O)N[C@@H](CC(N)=O)C(=O)N[C@@H](Cc1cnc[nH]1)C(=O)N[C@H](C(=O)N[C@@H](CCC(N)=O)C(=O)O)C(C)C)[C@@H](C)CC` [GLNALKKVFQGFHEAIKLINNHVQ]: the values for the minimum inhibitory concentration (MIC) in [6] and in [2] were not below 160 µM and more than 80 µM, respectively.

In the case of `CC(C)C[C@H](NC(=O)[C@H](CCCN=C(N)N)NC(=O)[C@H](CCCCN)NC(=O)[C@H](Cc1c[nH]c2ccccc12)NC(=O)[C@@H](NC(=O)[C@H](CCCCN)NC(=O)[C@H](CCCCN)NC(=O)[C@H](CCCN=C(N)N)NC(=O)[C@H](CC(C)C)NC(=O)[C@H](CCCN=C(N)N)NC(=O)[C@@H](N)CCCN=C(N)N)[C@@H](C)O)C(=O)N[C@@H](Cc1c[nH]c2ccccc12)C(N)=O` [RRLRKKTWKRLW], the MIC was more than 128 µM in experiment [1]; 16 µM (≈ 27.6 µg/mL) in [2]; not below 64 µM in experiment [8]; 64 µM (≈ 110 µg/mL) in experiment [9]; not below 32 µM in the experiment with Escherichia coli UB1005; 64 µM (≈ 110 µg/mL) in [10].

As for `CC[C@H](C)[C@H](NC(=O)[C@H](CC(C)C)NC(=O)[C@H](CC(C)C)NC(=O)[C@@H]1CCCN1C(=O)[C@H](CCCCN)NC(=O)[C@H](CC(C)C)NC(=O)[C@H](CCCCN)NC(=O)[C@@H]1CCCN1C(=O)[C@H](CC(C)C)NC(=O)[C@H](CC(C)C)NC(=O)[C@H](CC(C)C)NC(=O)[C@H](CCCCN)NC(=O)[C@H](CC(C)C)NC(=O)[C@H](CC(C)C)NC(=O)[C@H](CCCCN)NC(=O)[C@@H](N)Cc1ccc(O)cc1)C(=O)N[C@@H](CCCCN)C(=O)N[C@@H](CC(C)C)C(N)=O` [YKLLKLLLPKLKPLLIKL], the values for the MIC in experiment [11], in experiment [4] and in [9] were 67.3 µM (≈ 144 µg/mL), 5.27 µM (≈ 11.3 µg/mL) and 2.28 µM (≈ 4.9 µg/mL), respectively.

Usually MIC stands for the lowest concentration that inhibits growth of the organism.
